Test: Biodistribution in normal mice (dissection, gamma counting)
Format: in vivo
Conditions: for % dose/g Blood / % dose/g Body leftover / % dose/g Bone / % dose/g Brain / % dose/g Fat / % dose/g Heart / % dose/g Intestine / % dose/g Kidney / % dose/g Liver / % dose/g Lung / % dose/g Muscle / % dose/g Pancreas / % dose/g Skin / % dose/g Spleen / % dose/g Stomach / % dose/g Tail / % dose/g Testes / % dose/g Thyroid / % dose/g Urogenital / % dose/organ Blood / % dose/organ Body leftover / % dose/organ Bone / % dose/organ Brain / % dose/organ Fat / % dose/organ Heart / % dose/organ Intestine / % dose/organ Kidney / % dose/organ Liver / % dose/organ Lung / % dose/organ Muscle / % dose/organ Pancreas / % dose/organ Skin / % dose/organ Spleen / % dose/organ Stomach / % dose/organ Tail / % dose/organ Testes / % dose/organ Thyroid / % dose/organ Urogenital: AVG
Experimental: While under anesthesia, 0.2 mL of saline solution containing 20 μCi of 3-(3-[18F]-fluoroazetidin-1-yl)-8-methylbenzo[4,5]imidazo[1,2-a]pyridine is injected directly into the tail vein. Three mice are used per time point and sacrificed in a staggered manner. The following organs and fluids are collected: Blood, Spleen, Thyroid, Testes, Heart, Liver, Pancreas, Kidneys, Muscle, Skin, Stomach, Bone, Lungs, Brain, Intestines, Urogenital system. The organs are weighted and the radioactivity of each organ is counted in an Automatic Gamma Counter (Perkin Elmer). For the skin, bone, muscle and blood, a sample is counted and the total weight of the organ or fluid is estimated. A sample of the injected dose is counted as reference. The Percentage Injected Dose per Gram of tissue (% ID/g) is calculated for each organ.

With Cc1ccc2nc3cc(N4CC([18F])C4)ccn3c2c1 [Compound 8, 3-(3-[18F]-fluoroazetidin-1-yl)-8-methylbenzo[4,5]imidazo[1,2-a]pyridine] the “% dose/g Blood” value (2 minutes) was 2.52 % dose/g, the “% dose/g Body leftover” value (2 minutes) was 2.43 % dose/g and the “% dose/g Bone” value (2 minutes) was 1.89 % dose/g. For the same compound, the “% dose/g Brain” value (2 minutes) was 9.53 % dose/g, the “% dose/g Fat” value (2 minutes) was 1.09 % dose/g and the “% dose/g Heart” value (2 minutes) was 4.79 % dose/g. For the same compound, the “% dose/g Intestine” value (2 minutes) was 5.77 % dose/g, the “% dose/g Kidney” value (2 minutes) was 39.08 % dose/g and the “% dose/g Liver” value (2 minutes) was 7.32 % dose/g. For the same compound, the “% dose/g Lung” value (2 minutes) was 26.50 % dose/g, the “% dose/g Muscle” value (2 minutes) was 1.81 % dose/g and the “% dose/g Pancreas” value (2 minutes) was 8.74 % dose/g. For the same compound, the “% dose/g Skin” value (2 minutes) was 0.96 % dose/g, the “% dose/g Spleen” value (2 minutes) was 10.89 % dose/g and the “% dose/g Stomach” value (2 minutes) was 4.14 % dose/g. The “% dose/g Tail” value (2 minutes) was 14.93 % dose/g, the “% dose/g Testes” value (2 minutes) was 1.78 % dose/g and the “% dose/g Thyroid” value (2 minutes) was 6.01 % dose/g. For the same compound, the “% dose/g Urogenital” value (2 minutes) was 4.33 % dose/g, the “% dose/organ Blood” value (2 minutes) was 4.54 % dose/organ and the “% dose/organ Body leftover” value (2 minutes) was 38.48 % dose/organ. For the same compound, the “% dose/organ Bone” value (2 minutes) was 6.87 % dose/organ, the “% dose/organ Brain” value (2 minutes) was 4.42 % dose/organ and the “% dose/organ Fat” value (2 minutes) was 0.27 % dose/organ. The “% dose/organ Heart” value (2 minutes) was 0.72 % dose/organ, the “% dose/organ Intestine” value (2 minutes) was 15.39 % dose/organ and the “% dose/organ Kidney” value (2 minutes) was 15.93 % dose/organ. For the same compound, the “% dose/organ Liver” value (2 minutes) was 11.56 % dose/organ, the “% dose/organ Lung” value (2 minutes) was 5.18 % dose/organ and the “% dose/organ Muscle” value (2 minutes) was 19.01 % dose/organ. The “% dose/organ Pancreas” value (2 minutes) was 1.31 % dose/organ, the “% dose/organ Skin” value (2 minutes) was 3.74 % dose/organ and the “% dose/organ Spleen” value (2 minutes) was 1.00 % dose/organ. The “% dose/organ Stomach” value (2 minutes) was 1.52 % dose/organ, the “% dose/organ Tail” value (2 minutes) was 10.85 % dose/organ and the “% dose/organ Testes” value (2 minutes) was 0.30 % dose/organ. For the same compound, the “% dose/organ Thyroid” value (2 minutes) was 0.10 % dose/organ, the “% dose/organ Urogenital” value (2 minutes) was 0.75 % dose/organ and the “% dose/g Blood” value (30 minutes) was 1.14 % dose/g. The “% dose/g Body leftover” value (30 minutes) was 0.71 % dose/g, the “% dose/g Bone” value (30 minutes) was 0.93 % dose/g and the “% dose/g Brain” value (30 minutes) was 0.39 % dose/g. The “% dose/g Fat” value (30 minutes) was 0.63 % dose/g, the “% dose/g Heart” value (30 minutes) was 0.76 % dose/g and the “% dose/g Intestine” value (30 minutes) was 10.09 % dose/g. The “% dose/g Kidney” value (30 minutes) was 5.98 % dose/g, the “% dose/g Liver” value (30 minutes) was 2.76 % dose/g and the “% dose/g Lung” value (30 minutes) was 5.11 % dose/g. The “% dose/g Muscle” value (30 minutes) was 0.46 % dose/g, the “% dose/g Pancreas” value (30 minutes) was 1.15 % dose/g and the “% dose/g Skin” value (30 minutes) was 0.55 % dose/g. The “% dose/g Spleen” value (30 minutes) was 1.98 % dose/g, the “% dose/g Stomach” value (30 minutes) was 3.10 % dose/g and the “% dose/g Tail” value (30 minutes) was 2.77 % dose/g. For the same compound, the “% dose/g Testes” value (30 minutes) was 1.56 % dose/g, the “% dose/g Thyroid” value (30 minutes) was 0.81 % dose/g and the “% dose/g Urogenital” value (30 minutes) was 22.15 % dose/g. The “% dose/organ Blood” value (30 minutes) was 2.03 % dose/organ, the “% dose/organ Body leftover” value (30 minutes) was 10.62 % dose/organ and the “% dose/organ Bone” value (30 minutes) was 3.31 % dose/organ. The “% dose/organ Brain” value (30 minutes) was 0.17 % dose/organ, the “% dose/organ Fat” value (30 minutes) was 0.21 % dose/organ and the “% dose/organ Heart” value (30 minutes) was 0.11 % dose/organ. For the same compound, the “% dose/organ Intestine” value (30 minutes) was 28.28 % dose/organ, the “% dose/organ Kidney” value (30 minutes) was 2.56 % dose/organ and the “% dose/organ Liver” value (30 minutes) was 4.22 % dose/organ. The “% dose/organ Lung” value (30 minutes) was 0.99 % dose/organ, the “% dose/organ Muscle” value (30 minutes) was 4.68 % dose/organ and the “% dose/organ Pancreas” value (30 minutes) was 0.15 % dose/organ. For the same compound, the “% dose/organ Skin” value (30 minutes) was 2.10 % dose/organ, the “% dose/organ Spleen” value (30 minutes) was 0.19 % dose/organ and the “% dose/organ Stomach” value (30 minutes) was 1.80 % dose/organ. The “% dose/organ Tail” value (30 minutes) was 1.93 % dose/organ, the “% dose/organ Testes” value (30 minutes) was 0.23 % dose/organ and the “% dose/organ Thyroid” value (30 minutes) was 0.01 % dose/organ. For the same compound, the “% dose/organ Urogenital” value (30 minutes) was 3.92 % dose/organ, the “% dose/g Blood” value (60 minutes) was 0.87 % dose/g and the “% dose/g Body leftover” value (60 minutes) was 0.54 % dose/g. The “% dose/g Bone” value (60 minutes) was 0.97 % dose/g, the “% dose/g Brain” value (60 minutes) was 0.26 % dose/g and the “% dose/g Fat” value (60 minutes) was 0.27 % dose/g. The “% dose/g Heart” value (60 minutes) was 0.49 % dose/g, the “% dose/g Intestine” value (60 minutes) was 15.40 % dose/g and the “% dose/g Kidney” value (60 minutes) was 4.32 % dose/g. For the same compound, the “% dose/g Liver” value (60 minutes) was 3.10 % dose/g, the “% dose/g Lung” value (60 minutes) was 4.01 % dose/g and the “% dose/g Muscle” value (60 minutes) was 0.31 % dose/g. The “% dose/g Pancreas” value (60 minutes) was 0.60 % dose/g, the “% dose/g Skin” value (60 minutes) was 0.36 % dose/g and the “% dose/g Spleen” value (60 minutes) was 1.15 % dose/g. The “% dose/g Stomach” value (60 minutes) was 2.78 % dose/g, the “% dose/g Tail” value (60 minutes) was 2.10 % dose/g and the “% dose/g Testes” value (60 minutes) was 0.88 % dose/g. For the same compound, the “% dose/g Thyroid” value (60 minutes) was 0.68 % dose/g, the “% dose/g Urogenital” value (60 minutes) was 13.95 % dose/g and the “% dose/organ Blood” value (60 minutes) was 1.63 % dose/organ. For the same compound, the “% dose/organ Body leftover” value (60 minutes) was 8.64 % dose/organ, the “% dose/organ Bone” value (60 minutes) was 3.62 % dose/organ and the “% dose/organ Brain” value (60 minutes) was 0.09 % dose/organ. The “% dose/organ Fat” value (60 minutes) was 0.12 % dose/organ, the “% dose/organ Heart” value (60 minutes) was 0.08 % dose/organ and the “% dose/organ Intestine” value (60 minutes) was 32.10 % dose/organ. The “% dose/organ Kidney” value (60 minutes) was 1.73 % dose/organ, the “% dose/organ Liver” value (60 minutes) was 4.73 % dose/organ and the “% dose/organ Lung” value (60 minutes) was 0.74 % dose/organ. The “% dose/organ Muscle” value (60 minutes) was 3.30 % dose/organ, the “% dose/organ Pancreas” value (60 minutes) was 0.13 % dose/organ and the “% dose/organ Skin” value (60 minutes) was 1.44 % dose/organ. The “% dose/organ Spleen” value (60 minutes) was 0.12 % dose/organ, the “% dose/organ Stomach” value (60 minutes) was 3.25 % dose/organ and the “% dose/organ Tail” value (60 minutes) was 1.35 % dose/organ. For the same compound, the “% dose/organ Testes” value (60 minutes) was 0.20 % dose/organ, the “% dose/organ Thyroid” value (60 minutes) was 0.11 % dose/organ and the “% dose/organ Urogenital” value (60 minutes) was 3.23 % dose/organ. The “% dose/g Blood” value (120 minutes) was 0.50 % dose/g, the “% dose/g Body leftover” value (120 minutes) was 0.29 % dose/g and the “% dose/g Bone” value (120 minutes) was 0.72 % dose/g. The “% dose/g Brain” value (120 minutes) was 0.23 % dose/g, the “% dose/g Fat” value (120 minutes) was 0.11 % dose/g and the “% dose/g Heart” value (120 minutes) was 0.27 % dose/g. For the same compound, the “% dose/g Intestine” value (120 minutes) was 11.88 % dose/g, the “% dose/g Kidney” value (120 minutes) was 1.19 % dose/g and the “% dose/g Liver” value (120 minutes) was 1.35 % dose/g. For the same compound, the “% dose/g Lung” value (120 minutes) was 2.02 % dose/g, the “% dose/g Muscle” value (120 minutes) was 0.25 % dose/g and the “% dose/g Pancreas” value (120 minutes) was 0.23 % dose/g. For the same compound, the “% dose/g Skin” value (120 minutes) was 0.39 % dose/g, the “% dose/g Spleen” value (120 minutes) was 0.57 % dose/g and the “% dose/g Stomach” value (120 minutes) was 0.81 % dose/g. The “% dose/g Tail” value (120 minutes) was 0.84 % dose/g, the “% dose/g Testes” value (120 minutes) was 0.31 % dose/g and the “% dose/g Thyroid” value (120 minutes) was 0.60 % dose/g. For the same compound, the “% dose/g Urogenital” value (120 minutes) was 30.39 % dose/g, the “% dose/organ Blood” value (120 minutes) was 0.89 % dose/organ and the “% dose/organ Body leftover” value (120 minutes) was 4.42 % dose/organ. For the same compound, the “% dose/organ Bone” value (120 minutes) was 2.50 % dose/organ, the “% dose/organ Brain” value (120 minutes) was 0.11 % dose/organ and the “% dose/organ Fat” value (120 minutes) was 0.03 % dose/organ. For the same compound, the “% dose/organ Heart” value (120 minutes) was 0.04 % dose/organ, the “% dose/organ Intestine” value (120 minutes) was 32.80 % dose/organ and the “% dose/organ Kidney” value (120 minutes) was 0.44 % dose/organ. The “% dose/organ Liver” value (120 minutes) was 1.86 % dose/organ, the “% dose/organ Lung” value (120 minutes) was 0.37 % dose/organ and the “% dose/organ Muscle” value (120 minutes) was 2.51 % dose/organ. For the same compound, the “% dose/organ Pancreas” value (120 minutes) was 0.03 % dose/organ, the “% dose/organ Skin” value (120 minutes) was 1.46 % dose/organ and the “% dose/organ Spleen” value (120 minutes) was 0.05 % dose/organ. For the same compound, the “% dose/organ Stomach” value (120 minutes) was 0.45 % dose/organ, the “% dose/organ Tail” value (120 minutes) was 0.61 % dose/organ and the “% dose/organ Testes” value (120 minutes) was 0.05 % dose/organ. For the same compound, the “% dose/organ Thyroid” value (120 minutes) was 0.06 % dose/organ, the “% dose/organ Urogenital” value (120 minutes) was 6.52 % dose/organ and the “clearance from the brain, remaining level” value (before the 30 min point) was “less than 10 % of the peak”. For the same compound, the “de-fluorination (radioactivity in bone tissue)” value (first two hours) was “do not undergo de-fluorination” and the “uptake by the muscle” value (over the study period) was “under 2 % ID/g”.
